{"source": "paper PMC11521309", "about": "“A novel 4-aminoquinoline chemotype with multistage antimalarial activity and lack of cross-resistance with PfCRT and PfMDR1 mutants” (PLOS Pathogens, 2024)", "origin": "cited, not measured here", "key": {"P. falciparum NF10^NF": {"test_system": "P. falciparum NF10^NF", "design": "method as in ref 1 Veiga et al. 2016", "settings": "means ± SEM, N 6; ref 1 Veiga et al. 2016; read-out: IC50 NF10NF; cited from earlier work"}, "P. falciparum Dd2^I218F": {"test_system": "P. falciparum Dd2^I218F", "design": "key to Phenotype, Dd2^I218F: S: sensitive; R: resistant", "settings": "cited from earlier work"}, "P. falciparum 7G8^C350R": {"test_system": "P. falciparum 7G8^C350R", "design": "key to Phenotype, 7G8^C350R: S: sensitive; R: resistant", "settings": "cited from earlier work"}, "P. falciparum Dd2^G353V": {"test_system": "P. falciparum Dd2^G353V", "design": "key to Phenotype, Dd2^G353V: S: sensitive; R: resistant", "settings": "cited from earlier work"}, "P. falciparum Dd2^3D7": {"test_system": "P. falciparum Dd2^3D7", "design": "key: S: sensitive; R: resistant", "settings": "ref [19],[20],[51]; cited from earlier work"}, "P. falciparum NF10^YF": {"test_system": "P. falciparum NF10^YF", "design": "method as in ref 1 Veiga et al. 2016", "settings": "means ± SEM, N 6; ref 1 Veiga et al. 2016; read-out: IC50 NF10YF; cited from earlier work"}, "P. falciparum Dd2^T93S": {"test_system": "P. falciparum Dd2^T93S", "design": "key to Phenotype, Dd2^T93S: S: sensitive; R: resistant", "settings": "cited from earlier work"}, "P. falciparum Dd2^Dd2": {"test_system": "P. falciparum Dd2^Dd2", "design": "key to Phenotype, Dd2^Dd2: S: sensitive; R: resistant", "settings": "cited from earlier work"}, "P. falciparum Dd2^H97Y": {"test_system": "P. falciparum Dd2^H97Y", "design": "key: S: sensitive; R: resistant", "settings": "ref [19],[20],[51]; cited from earlier work"}, "P. falciparum Dd2^M343L": {"test_system": "P. falciparum Dd2^M343L", "design": "key to Phenotype, Dd2^M343L: S: sensitive; R: resistant", "settings": "cited from earlier work"}, "P. falciparum 7G8^F145I": {"test_system": "P. falciparum 7G8^F145I", "design": "key to Phenotype, 7G8^F145I: S: sensitive; R: resistant", "settings": "cited from earlier work"}, "P. falciparum Dd2^F145I": {"test_system": "P. falciparum Dd2^F145I", "design": "key to Phenotype, Dd2^F145I: S: sensitive; R: resistant", "settings": "cited from earlier work"}, "P. falciparum 7G8^7G8": {"test_system": "P. falciparum 7G8^7G8", "design": "key to Phenotype, 7G8^7G8: S: sensitive; R: resistant", "settings": "cited from earlier work"}, "[1]": {"settings": "Dd2I218F, mean ± SEM, ref 2 (Dhingra et al., 2019)"}, "[2]": {"settings": "Dd2G353V, mean ± SEM, ref 1 (Ross et al., 2018)"}, "[3]": {"settings": "Dd2T93S, mean ± SEM, ref 2 (Dhingra et al., 2019)"}, "[4]": {"settings": "Dd2Dd2, mean ± SEM, ref 1 (Ross et al., 2018)"}, "[5]": {"settings": "Dd2M343L, mean ± SEM, ref 1 (Ross et al., 2018)"}, "[6]": {"settings": "Dd2F145I, mean ± SEM, ref 1 (Ross et al., 2018)"}}, "data": [{"smiles": "Clc1ccc2c(N3CCN(CCCN4CCN(c5ccnc6cc(Cl)ccc56)CC4)CC3)ccnc2c1", "note": "[PPQ, piperaquine]", "values": [{"measurement": "IC50", "setting": "P. falciparum NF10^NF", "result": "35.4 ± 2.1", "unit": "nM"}, {"measurement": "IC50", "setting": "P. falciparum Dd2^I218F; [1]", "result": "42 ± 20.8", "unit": "nM"}, {"measurement": "IC90", "setting": "P. falciparum Dd2^I218F; [1]", "result": "8600 ± 1660", "unit": "nM"}, {"measurement": "Phenotype, Dd2^I218F", "setting": "P. falciparum Dd2^I218F; ref [19],[20],[51]", "result": "R"}, {"measurement": "IC50", "setting": "P. falciparum 7G8^C350R; 7G8C350R, mean ± SEM, ref 3 (Kim et al., 2019)", "result": "36.5 ± 2", "unit": "nM"}, {"measurement": "Phenotype, 7G8^C350R", "setting": "P. falciparum 7G8^C350R; ref [19],[20],[51]", "result": "R"}, {"measurement": "IC50", "setting": "P. falciparum Dd2^G353V; [2]", "result": "31.8 ± 7.4", "unit": "nM"}, {"measurement": "IC90", "setting": "P. falciparum Dd2^G353V; [2]", "result": "3740 ± 1980", "unit": "nM"}, {"measurement": "Phenotype, Dd2^G353V", "setting": "P. falciparum Dd2^G353V; ref [19],[20],[51]", "result": "R"}, {"measurement": "Phenotype, Dd2^3D7", "setting": "P. falciparum Dd2^3D7", "result": "S"}, {"measurement": "IC50", "setting": "P. falciparum NF10^YF", "result": "41.8 ± 3.4", "unit": "nM"}, {"measurement": "IC50", "setting": "P. falciparum Dd2^T93S; [3]", "result": "31.9 ± 5.6", "unit": "nM"}, {"measurement": "IC90", "setting": "P. falciparum Dd2^T93S; [3]", "result": "6880 ± 3420", "unit": "nM"}, {"measurement": "Phenotype, Dd2^T93S", "setting": "P. falciparum Dd2^T93S; ref [19],[20],[51]", "result": "R"}, {"measurement": "IC50", "setting": "P. falciparum Dd2^Dd2; [4]", "result": "27.6 ± 3.1", "unit": "nM"}, {"measurement": "IC90", "setting": "P. falciparum Dd2^Dd2; [4]", "result": "50.2 ± 4.2", "unit": "nM"}, {"measurement": "Phenotype, Dd2^Dd2", "setting": "P. falciparum Dd2^Dd2; ref [19],[20],[51]", "result": "S"}, {"measurement": "Phenotype, Dd2^H97Y", "setting": "P. falciparum Dd2^H97Y", "result": "R"}, {"measurement": "IC50", "setting": "P. falciparum Dd2^M343L; [5]", "result": "37.6 ± 4.8", "unit": "nM"}, {"measurement": "IC90", "setting": "P. falciparum Dd2^M343L; [5]", "result": "93.1 ± 9.7", "unit": "nM"}, {"measurement": "Phenotype, Dd2^M343L", "setting": "P. falciparum Dd2^M343L; ref [19],[20],[51]", "result": "R"}, {"measurement": "IC50", "setting": "P. falciparum 7G8^F145I; 7G8F145I, mean ± SEM, ref 3 (Kim et al., 2019)", "result": "28.7 ± 1", "unit": "nM"}, {"measurement": "Phenotype, 7G8^F145I", "setting": "P. falciparum 7G8^F145I; ref [19],[20],[51]", "result": "R"}, {"measurement": "IC50", "setting": "P. falciparum Dd2^F145I; [6]", "result": "65.3 ± 3.1", "unit": "nM"}, {"measurement": "IC90", "setting": "P. falciparum Dd2^F145I; [6]", "result": "5770 ± 666", "unit": "nM"}, {"measurement": "Phenotype, Dd2^F145I", "setting": "P. falciparum Dd2^F145I; a: sensitized to CQ compared to the parental line but not fully sensitive, ref [19],[20],[51]", "result": "R"}, {"measurement": "IC50", "setting": "P. falciparum 7G8^7G8; 7G87G8, mean ± SEM, ref 3 (Kim et al., 2019)", "result": "21.4 ± 1", "unit": "nM"}, {"measurement": "Phenotype, 7G8^7G8", "setting": "P. falciparum 7G8^7G8; ref [19],[20],[51]", "result": "S"}]}]}
